Several values for one entry are separate records, joined by “and”; a condition that tells them apart may be missing. Equal values may be shown once. Read-outs that look alike come from different tables or passages of the source.
How the values were obtained:
Du145 prostate = experiment: MTT growth inhibition, 72 h, Du145; format: cell-based; conditions: for GI50: Du145, MTT, 72 h
HT29 colon cells = experiment: ROS production, DCFDA/H2DCFDA cellular ROS assay; format: cell-based, human; conditions: treatment at GI50 concentration (TBHP positive control 20 μM)
Description: To determine the presence of ROS in treated cells, a DCFDA/H2DCFDA-cellular ROS Assay Kit (Abcam, Cambridge, MA, USA) was utilised, as previously reported. The ROS potential of platinum(II) precursors and platinum(IV) scaffolds, which were determined using the same method, were also presented in this study for comparison.
Additionally, the ROS potential of the platinum(II) precursors and platinum(IV) scaffolds was determined previously and was presented here to allow for comparison (Table 10 and Figure 13). […] Treatment with the complexes and ligands was completed at each specific GI50 concentration. […]
dimethylthiazol-2-yl]-2,5-diphenyltetrazolium bromide) assay and absorbance was read at 540 nm. An eight-point dose response curve was produced from which the GI50 value was calculated, representing the drug concentration at which cell growth was inhibited by 50% based on the difference between the optical density values on day 0 and those at the end of drug exposure.
4. Reactive Oxygen Species (ROS) Potential
A total of 25,000 cells/mL of HT29 cells in DMEM were seeded in 96-well plates. Cells were washed with 1X kit buffer, and then stained with 25 μM 2’,7’-dichlorofluorescein diacetate (DCFH-DA) and incubated for 45 min. DCFH-DA was then removed, and cells were then re-washed with 1X kit buffer, after which phenol red free media was added.
Cells were then treated with a GI50 drug concentration for each complex. The plates were directly scanned to measure fluorescence (relative fluorescence units (RFU)) at different time points using the Glo-Max®-Multimode microplate reader (Promega Corporation, Alexandra, VIC, Australia) at an excitation/emission of 485/535 nm. […]

A2780 ovarian = experiment: MTT growth inhibition, 72 h, A2780; format: cell-based
SJG2 glioblastoma = experiment: MTT growth inhibition, 72 h, SJG2; format: cell-based
[1] = Reduction with ascorbic acid (AsA) in PBS followed by 1H-NMR and 1D-195Pt-NMR; format: physicochemical; conditions: estimated 100% reduction, PBS in D2O, 37 °C
Description: The reduction behaviour of 1–6 was probed via ^1H-NMR and 1D-^195Pt-NMR spectroscopy, as previously described (see Supplementary Materials).
The reduction behaviour of 1–6 was monitored by ^1H-NMR and 1D-^195Pt-NMR spectroscopy using previously established methods. Prior to the reduction measurements, each metal complex was dissolved with PBS in D2O only.
Based on the initial 1D-^195Pt-NMR spectra acquired (Figures S62 and S63), the structural integrity of the complexes was retained, and no signs of reduction were observed, thus also confirming that the PBS had no effect on the complexes. Subsequently, AsA was added in each solution containing the metal complex, PBS and D2O. Then, sequential ^1H-NMR experiments were undertaken for 1 h, followed by final 1D-^195Pt-NMR experiments measured within the regions of 400 and −2800 ppm (Figures S64–S75). The approximate time points for 1–6 at which an estimated 50 and 100% reduction had occurred, in the presence of AsA, as represented by T50% and T100%, are summarised in Table 8.
A sequence of 1H-NMR experiments was carried out for 1 h at 37 °C, followed by 1D-195Pt-NMR within the regions of –2800 and 400 ppm. An amount of 10 mM PBS (~7.4 pH) was transferred to a vial and reduced to dryness through rotary evaporation. AsA (~1 mg) was combined with the metal complex (~5 mg) and transferred to the vial containing the dried PBS. 600 μL of D2O was then added to the vial to dissolve the complex, AsA and the PBS together. Each reaction was followed at 37 °C until the complete reduction […]
The cell lines tested were: HT29 colon, U87 glioblastoma, MCF-7 breast, A2780 ovarian, H460 lung, A431 skin, Du145 prostate, BE2-C neuroblastoma, SJ-G2 glioblastoma, MIA pancreas, ADDP ovarian variant, and the non-tumour derived MCF10A breast line. In […]
agents were prepared in DMSO (30 mM stock solutions) and stored at −20 °C until use.
All cell lines were cultured in a humidified atmosphere 5% carbon dioxide at 37 °C. The cancer cell lines were maintained in Dulbecco’s modified Eagle’s medium (DMEM) (Trace Biosciences, Sydney, NSW, Australia) supplemented with 10% foetal bovine serum, 10 mM sodium bicarbonate penicillin (100 IU mL−1), streptomycin (100 μg mL−1) and glutamine (4 mM). The non-cancer MCF10A cell line was cultured in DMEM:F12 (1:1) cell culture media, 5% heat inactivated horse serum, supplemented with penicillin (50 IU mL−1), streptomycin (50 μg mL−1), 20 mM 4-(2-hydroxyethyl)-1-piperazineethanesulfonic acid (HEPES), L-glutamine (2 mM), epidermal growth factor (20 ng mL−1), hydrocortisone (500 ng mL−1), cholera toxin (100 ng mL−1) and insulin (10 μg mL−1). Cytotoxicity was determined by plating cells in duplicate in […] medium at a density of 2500 – 4000 cells per well in 96 well plates. On day 0 (24 h after plating) when the cells were in logarithmic growth, 100 μL of medium with or without the test agent

multiple cell lines = experiment: MTT growth inhibition, over all cell lines tested; format: cell-based; conditions: mean over all cell lines tested; read-out: Mean GI50 Values
[2] = tested on: ADDP ovarian variant (cisplatin-resistant A2780 clone); experiment: MTT growth inhibition, 72 h, ADDP; format: cell-based; conditions: for GI50: ADDP, MTT, 72 h
HT29 colon = experiment: MTT growth inhibition, 72 h, HT29; format: cell-based, human
H460 lung = experiment: MTT growth inhibition, 72 h, H460; format: cell-based; conditions: for GI50: H460, MTT, 72 h
MCF7 breast = experiment: MTT growth inhibition, 72 h, MCF7; format: cell-based; conditions: MCF7, MTT, 72 h
U87 glioblastoma = experiment: MTT growth inhibition, 72 h, U87; format: cell-based
MIA pancreas = experiment: MTT growth inhibition, 72 h, MIA; format: cell-based

Row | SMILES | GI50 (Du145 prostate) | ROS Production (HT29 colon cells; HT29, 24 h) | ROS Production (HT29 colon cells; HT29, 48 h) | ROS Production (HT29 colon cells; HT29, 72 h) | GI50 (A2780 ovarian) | GI50 (SJG2 glioblastoma) | Reduction Times T100% [1] | GI50 (multiple cell lines) | GI50 [2] | GI50 (HT29 colon) | GI50 (H460 lung) | GI50 (MCF7 breast) | GI50 (U87 glioblastoma) | GI50 (MIA pancreas) | other results
1 | COc1ccc2c(c1)c(CC(=O)OCC(=O)[O][Pt-2]13([OH])([NH2+][C@H]4CCCC[C@@H]4[NH2+]1)[n+]1cccc4cc(C)c5ccc[n+]3c5c41)c(C)n2C(=O)c1ccc(Cl)cc1 [Complex 5, [Pt^IV(5-Mephen)(SS-DACH)(ACE)(OH)]^2+] | 1.3 ± 0.4 nM | 313 ± 11 RFU | 305 ± 10 RFU | 192 RFU and 192 ± 7 RFU | 30 ± 12 nM | 200 ± 21 nM | 10 to 15 min | 70 ± 15 nM | 9.3 ± 2 nM | 13 ± 8 nM | 43 ± 8 nM | 39 ± 18 nM | 140 ± 8 nM | 29 ± 14 nM | fold more potent than carboplatin (Du145 prostate): 11,540 fold; fold more potent than cisplatin (Du145 prostate): at least 920 fold; fold more potent than its platinum(II) precursor (Du145 prostate): 17 fold; fold more potent than oxaliplatin (Du145 prostate): 2230 fold; fold more potent than cisplatin [2]: 3000 fold
2 | COc1ccc2c(c1)c(CC(=O)OCC(=O)[O][Pt-2]13([OH])([NH2+][C@H]4CCCC[C@@H]4[NH2+]1)[n+]1cccc4c(C)c(C)c5ccc[n+]3c5c41)c(C)n2C(=O)c1ccc(Cl)cc1 [Complex 6, [Pt^IV(5,6-Me2phen)(SS-DACH)(ACE)(OH)]^2+] | 0.22 ± 0.1 nM | 344 ± 17 RFU | 312 ± 13 RFU | 202 RFU and 202 ± 10 RFU | 10 ± 4 nM | 130 ± 25 nM | 5 min | 32 ± 7 nM | 1.3 ± 0.5 nM | 4.7 ± 4 nM | 16 ± 2 nM | 12 ± 6 nM | 28 ± 3 nM | 7.8 ± 4 nM | fold more potent than its platinum(II) precursor (Du145 prostate; Du145): ~21 fold; fold more potent than the platinum(IV) scaffold (H460 lung): ~12 fold

From paper PMC10177380 (Cancers, 2023)
